Data: US11845803B2, “Combination therapies for treatment of BCMA-related cancers and autoimmune disorders” (Fred Hutchinson Cancer Center, priority 2017, dated 2023)

Key:
Type in all cases: cell-based, human
[1] = test system: myeloma cell lines (MM1.R, U266 and 8226); test: Soluble BCMA (sBCMA) in culture supernatant of myeloma cell lines with GSI, ELISA
Procedure: (I) U266 myeloma cells were washed and plated in culture media in the presence of various concentrations of GSI RO429097 (0.01 μM, 0.1 μM and 1.0 μM). The media supernatant was harvested after 1, 3, 5 and 24 hours and assayed for soluble BCMA (sBCMA) by ELISA. […] To test the effect of GSI on BCMA shedding in MM, three different myeloma cell lines (MM1.R, U266 and 8226) were washed and plated in culture media for 24 hours in the presence of various concentrations of GSI RO429097 (0.01 μM, 0.1 μM and 1.0 μM). The media supernatant was harvested and assayed for sBCMA by ELISA. sBCMA levels decreased in the supernatant in the presence of a GSI in a dose dependent manner (FIGS. 3G & 3H). To examine the effect on soluble BCMA (sBCMA) levels over time, U266 cells were washed and plated in culture media for 1, 3, 5 and 24 hours in the presence of various concentrations of GSI RO429097 (0.01 μM, 0.1 μM and 1.0 μM). The media supernatant was harvested and assayed for soluble BCMA (sBCMA) by ELISA. […] Next, the effect of removing GSI from MM cell culture was examined. […] Finally, the viability of the tested MM cell lines was not affected by addition of 1.0 μM RO429097 to culture (FIG. 3L).

[2] = test system: myeloma cell lines (8226, U266B1, MM1.R, H929); test: Surface BCMA expression on myeloma cell lines incubated with GSI, flow cytometry
Procedure: (A) Cell surface BCMA was measured on four myeloma cell lines (8226, U266B1, MM1.R, H929) by flow cytometry with an anti-BCMA monoclonal antibody before, and 5 hours after (see diagrams), incubation of the myeloma cell lines with GSI RO4929097 in a range of concentrations from 0 μM (DMSO control) to 1.0 μM. (E) U266 myeloma cells were incubated for 1, 3, 5 and 24 hours in the presence of various concentrations of GSI RO429097 (0.01 μM, 0.1 μM and 1.0 μM) and evaluated for surface BCMA expression by flow cytometry. […] (F) Fold change of surface BCMA expression on cell lines (MM1R=triangle; U266=square; 8226=circle) cultured in 1 μM GSI over time. GSI was re-administered as a half media change every 2 days. Fold change in BCMA is defined as Treated (MFIBCMA-MFIiso)/Control (MFIBCMA-MFIiso). Data is representative of at least 2 independent experiments. To examine the effect of γ-secretase inhibition on BCMA levels on myeloma cells, γ-secretase inhibitor (GSI) RO4929097 was used. […] To examine the effect of GSI on surface BCMA expression kinetics, U266 myeloma cells were incubated for 1, 3, 5 and 24 hours in the presence of various concentrations of GSI RO429097 (0.01 μM, 0.1 μM and 1.0 μM) and evaluated for cell surface BCMA expression by flow cytometry. […] The upregulation persisted over 7 days of culture in 1.0 μM GSI (FIG. 3F). Next, the effect of removing GSI from MM cell culture was examined. […] Finally, the viability of the tested MM cell lines was not affected by addition of 1.0 μM RO429097 to culture (FIG. 3L).

[3] = test system: CD138+ primary myeloma cells; test: Surface BCMA and other surface molecules on primary patient myeloma cells incubated with GSI, flow cytometry
Procedure: (N) Fold change in BCMA on primary myeloma cells (n=7) cultured with vary amounts of GSI for 4 h. Primary and cell lines were cultured at 0.5×10^6 cells/mL. Fold change in BCMA is defined as Treated (MFIBCMA-MFIiso)/Control (MFIBCMA-MFIiso). Data is representative of 3 independent experiments with T cells derived from different donors. […] (R) CD138+ primary myeloma cells were enriched from patient bone marrow samples, incubated for 3 hours in the presence of various concentrations of GSI RO429097 (0.01 μM to 10 μM) and evaluated for surface BCMA expression by flow cytometry. BCMA mean fluorescence intensity (MFI) on tumor cells is presented as fold increase over that observed on tumor cells incubated without RO429097. There is an observed dose dependent upregulation of BCMA. The effect of GSI on BCMA expression was then tested on primary myeloma samples from patients. CD138^+ myeloma cells were enriched from patient bone marrow samples, incubated for 3 hours in the presence of various concentrations of GSI RO429097 (0.01 μM to 10 μM) and evaluated for surface BCMA expression by flow cytometry (FIGS. 3M and 3R). BCMA mean fluorescence intensity (MFI) on tumor cells is presented as fold increase over tumor cells incubated without RO4929097.

[4] = U266, 1, 3, 5 and 24 hours, 0.01, 0.1 and 1.0 μM

CC(C)(C(=O)NCC(F)(F)C(F)(F)F)C(=O)N[C@@H]1C(=O)Nc2ccccc2-c2ccccc21 [RO4929097]
effect of GSI on surface BCMA shedding (reversibility) ([1]; 1.0 μM GSI removed or continued): reversible inhibitory effect
sBCMA levels in supernatant ([1]; MM1.R, U266 and 8226, 24 hours, 0.01, 0.1 and 1.0 μM): decreased
GSI concentration at which BCMA release into supernatant was decreased ([1]; U266, 1, 3, 5 and 24 hours): at least 0.01 μM
soluble BCMA levels in supernatant over time [1, 4]: dose-dependent decrease
supernatant sBCMA following removal of GSI ([1]; after removal of 1.0 μM GSI vs continued GSI): increased when the GSI was removed
persistence of surface BCMA upregulation in culture ([2]; 1.0 μM GSI, GSI re-administered every 2 days): ≥ 7 days
surface BCMA on myeloma cell lines ([2]; GSI 0.001 μM to 1.0 μM): rapidly upregulated
time of peak increase in surface BCMA expression ([2]; U266, 0.01-1.0 μM GSI): 5 h
cell surface BCMA expression on U266 cells [2, 4]: increased in a dose-dependent manner
surface BCMA levels following removal of GSI ([2]; after removal of 1.0 μM GSI): decreased
surface BCMA (MFI, fold increase) on primary myeloma cells ([3]; 3 hours, 0.01 μM to 10 μM): dose-dependent upregulation
levels of other cell surface molecules (CS1, CD86, PD-L1, CD80, CD38) ([3]; primary myeloma cells, various GSI concentrations): no effect
